Test results published in patent US10772326B2 (priority 2014, dated 2020).
Like-named read-outs stand apart in the source and are kept apart here.

How the values were obtained:
[1] = system: E. coli Stratagene strain “Solopack”; assay: Disc test of essential oils on E. coli growth on LB agar; format: cell-based; conditions: 20 μl undiluted on 6 mm disc, 24 hrs
Experimental: The essential oils cinnamadehyde (Aldrich, W228605; ≥98% purity), carvacrol (Aldrich, W224502; ≥98% purity) and geraniol (Aldrich, 163333; 98% purity) were purchased Sigma-Aldrich (St. Louis, Mo.). A single colony of E. coli Stratagene strain “Solopack” was inoculated in 5 ml of Luria Broth (LB) liquid medium with shaking at 37° C. overnight. Two hundred μl of the E. coli overnight cultures were placed on an LB agar plate, and spread evenly with glass beads. The bacterial culture was allowed to absorb into the LB medium. Within 30 min after absorption, 20 μl drops of the three essential oils (cinnamaldehyde, carvacrol or geraniol) were separately placed without dilution on 6 mm discs (Whatman, Cat No. 2017-006; GE healthcare Life Science) and the treated disks were placed on top of the plates with E. coli. The plates were then incubated for 24 hrs. […] Experiments were repeated, with the same results.

[2] = system: L. crescens strain BT-1 (Lcr); format: cell-based, Liberibacter crescens; conditions: 5 days; for inhibition of the growth of Lcr: 20 μl on 6 mm disc
[3] = system: Swingle rootstocks and sweet orange; assay: Phytotoxicity of foliar spray or leaf painting on citrus; format: in vivo; conditions: spray to run-off or leaf painting
From the text: To test the phytoxicity of cinnamaldehyde or carvacrol in 70% ethanol, and 70% ethanol alone on citrus plants, we applied 1% (w/v) and 10% (w/v) cinnamaldehyde or carvacrol (each dissolved in 70% ethanol) on Swingle rootstocks (˜6 inches to 1 foot tall) by spraying to the point of run-off of the spray and also sweet orange (˜3 foot tall) by painting one or both sides of a portion of the leaf surface. We also applied 70% ethanol as control in these two methods.

Swingle rootstocks = assay: Phytotoxicity of soil drench on potted citrus; format: in vivo; conditions: drench to run-off
From the text: To further test the phytoxicity of cinnamaldehyde or carvacrol in 70% ethanol, and 70% ethanol alone on citrus plants, we applied 1% and 10% cinnamaldehyde or carvacrol (each dissolved in 70% ethanol) on Swingle rootstocks (˜6 inches to 1 foot tall) by adding sufficient liquid to soil of potted citrus to the point of run-off of the drench. We also applied 70% ethanol as control in these two methods.

Las [4] = format: in vivo, Candidatus Liberibacter asiaticus; conditions: 1% (w/v) in 70% ethanol, foliar spray to run-off; 1-2 weeks later and for several months; positive = Ct ≤ 35
Las [5] = conditions: spray to run-off
Las [6] = conditions: 1.5% (w/v) in 100% DMSO
[7] = 1% in 70% ethanol (carvacrol: 8 mg/ml (1%))

Row | SMILES | inhibition of the growth of E. coli [1] | relative inhibition of the growth of E. coli (ranking) [1] | inhibition of the growth of Lcr ([2]; 2 mg/ml in 70% ethanol) | phytotoxicity, foliar ([3]; 1% (w/v) in 70% ethanol) | phytotoxicity, soil drench (Swingle rootstocks; [7]) | level down to which inhibitory to Lcr ([2]; two-fold serial dilutions in 70% ethanol, disc test) [mg/mL] | phytotoxicity, foliar ([3]; 10% w/v in 70% ethanol) | phytotoxicity, soil drench (Swingle rootstocks; 10% w/v in 70% ethanol) | Las qPCR tests after treatment (Las [4]) | PCR tests for presence of Las (Las [5]; 0.3% in 50% DMSO) | effect on the trees (defoliation) (Las [5]; 0.3% in 50% DMSO) | weekly qPCR tests for Las for the next nine months (Las [5]; 1.5% in 50% DMSO) | effect on the trees (defoliation) (Las [5]; 1.5% in 50% DMSO, 6-7 days later) | PCR tests for presence of Las in new shoots (Las [5]; 1.5% in 50% DMSO, about 3 weeks after defoliation) | effect on the trees (defoliation) (Las [6]; 2 x 20 ml trunk injection, 6-7 days later) | PCR tests for presence of Las in new shoots (Las [6]; trunk injection) | weekly PCR tests for Las for the next 9 months (Las [6]; trunk injection) | inhibition of the growth of Lcr ([2]; 2 mg/ml to 0.125 mg/ml in 70% ethanol)
1 | Cc1ccc(C(C)C)cc1O [carvacrol, reference compound] | inhibitory | more inhibitory than cinnamaldehyde | only slight inhibition | highly phytotoxic | highly phytotoxic | – | – | – | – | – | – | – | – | – | – | – | – | –
2 | O=C/C=C/c1ccccc1 [cinnamaldehyde] | inhibitory | more inhibitory than geraniol | surprisingly strong inhibition | not at all phytotoxic | not at all phytotoxic | 1 | moderately phytotoxic | moderately phytotoxic | qPCR positive | remained infected | appeared unaffected | remained completely negative | completely defoliated | completely Las negative | completely defoliated | completely negative | remained completely PCR negative | –
3 | CC(C)=CCC/C(C)=C/CO [geraniol, reference compound] | inhibitory | – | – | – | – | – | – | – | – | – | – | – | – | – | – | – | – | not inhibitory
